From PMC5918173, “Characterization of Transglutaminase 2 activity inhibitors in monocytes in vitro and their effect in a mouse model for multiple sclerosis” (PLoS ONE, 2018)

How the values were obtained:
[1] = molecular target: T1, TG2-fibronectin (FN42) interaction (Homo sapiens, UniProt P21980); assay: TG2 interaction with fibronectin (FN42) ELISA; format: binding; settings: 5 and 15 μM, with or without 1 mM CaCl2, Fig 2E, 2F
T1 construct: purchased Zedira
T1 sequence (P21980 1-687): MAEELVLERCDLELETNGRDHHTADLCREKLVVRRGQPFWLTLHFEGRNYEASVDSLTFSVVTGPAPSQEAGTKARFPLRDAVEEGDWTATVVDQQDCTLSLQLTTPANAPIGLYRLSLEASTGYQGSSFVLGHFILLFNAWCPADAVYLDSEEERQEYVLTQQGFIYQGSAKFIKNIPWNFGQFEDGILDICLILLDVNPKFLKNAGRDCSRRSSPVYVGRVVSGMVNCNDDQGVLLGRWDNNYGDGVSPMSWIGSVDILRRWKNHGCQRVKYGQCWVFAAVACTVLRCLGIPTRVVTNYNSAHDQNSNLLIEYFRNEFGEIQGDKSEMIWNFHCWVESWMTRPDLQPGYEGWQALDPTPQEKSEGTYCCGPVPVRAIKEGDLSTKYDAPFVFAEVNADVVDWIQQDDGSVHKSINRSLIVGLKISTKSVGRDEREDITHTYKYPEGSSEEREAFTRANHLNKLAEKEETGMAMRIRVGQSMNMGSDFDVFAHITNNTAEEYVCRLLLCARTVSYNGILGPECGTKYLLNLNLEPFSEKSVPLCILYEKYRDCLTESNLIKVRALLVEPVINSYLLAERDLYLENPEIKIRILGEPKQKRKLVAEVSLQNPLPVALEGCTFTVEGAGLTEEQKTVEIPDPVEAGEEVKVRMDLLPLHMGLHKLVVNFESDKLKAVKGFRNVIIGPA
Procedure: To determine the potential effect of BJJF078 and ERW1041E on the interaction of TG2 with fibronectin, ELISA experiments were performed as described previously. Briefly, 96 well ELISA plates (Nunc, Maxisorp) were coated with 100 μg/ml mouse anti his-tag monoclonal antibody (Roche) in PBS at 4°C overnight. This was followed by simultaneous washing and blocking with 0.5% BSA in PBS (3x 10 min). Per well 50 μl of a 10 nM human recombinant TG2 (his-tagged, Zedira) solution in PBS was added. Into each well (triplicates) either DMSO (control, 1% final concentration) or TG2 inhibitors (BJJF078, ERW1041E, final concentration 5 and 15 μM in 1% DMSO) were added. As a positive control similar concentrations of TG53, a small molecule that inhibits the interaction between TG2 and fibronectin was added (kindly provided by Prof D. Matei, Northwestern University, Chicago, USA). […] After 1 h incubation at RT, 50 μl of 10 nM FN42-biotin solution (kindly provided by Prof D. Matei) was added to the wells. After an additional 1 h incubation at RT and washing steps (3x 10 min) with 0.5% BSA in PBS, 100 μl streptavidin-HRPO conjugate (from kit opr001, Covalab) was added and incubated for 1 h at RT. This was followed by another series of washes and the colour reaction started with 100 μl of 3,3′,5,5′ tetramethylbenzidine substrate (TMB, from kit opr001, Covalab). After sufficient colour development (15 min), the reaction was stopped with 1M HCl and absorbance was measured at 450 nm.

[2] = proposed; reference not given; cited from earlier work
[3] = molecular target: T2, human TG2 in THP-1/TG2 macrophages (Homo sapiens, UniProt P21980); assay: Cellular inhibition of TG activity in THP-1/TG2 cells (BAP incorporation); format: cell-based; settings: TG2 overexpressing THP-1 macrophages, Fig 2D
T2 construct: expressed in transfected cells; host or cells: THP-1 (TIB-202, ATCC) stably transduced with lentiviral pCDH-hTG2, PMA-differentiated, retinoic acid-stimulated
T2 sequence (P21980 1-687): T1 sequence (P21980 1-687)
Procedure: Human monocytic THP-1 cells (TIB-202, ATCC) were transduced with a lentiviral vector (pCDH-hTG2, gift from Prof K. Mehta, University of Texas, USA) to overexpress human TG2, to ensure high protein levels in addition to their constitutive expression that can be inhibited. To obtain a stable TG2 overexpressing cell line, transduced cells (THP-1/pCDH-hTG2 (THP-1/TG2)) were positively selected with puromycin and cultured at 37°C and 5% CO2 in air in RPMI-1640 medium (Gibco) supplemented with 10% fetal calf serum (FCS; Gibco), and 50 Units/ml of penicillin and 50 μg/ml streptomycin (Gibco).
THP-1/TG2 cells cultured with 3% FCS were differentiated into macrophages with 250 nM phorbol-12-myristate-13-acetate (Sigma) for 48 h hours. Simultaneously, the cells were stimulated with 1 μM retinoic acid (Fluka) as TG2 expression inducer to ensure maximal TG2 expression and activity. The in vitro TG activity inhibition assay was performed as previously described. In detail, the cells were washed with serum free medium and incubated for 4 h (37°C, 5% CO2) with 1 mM of the TG substrate 5-(biotinamido) pentylamine (BAP, Pierce) in serum free medium. […] The total protein concentration was determined with the BCA method (Pierce, according to protocol) and adjusted to the same concentration in all samples. […] The optical density at 492 nm was measured.

| Compound | effect on binding of TG2 to fibronectin (FN42) [1] | inhibitory in vivo half-life [2] | effect on cellular TG2 activity ([3]; 0.03 to 100 μM) | IC50 ([3]; read-out: IC50 cellular TG2 transamidating activity) |
| --- | --- | --- | --- | --- |
| O=C(NCC1CC(Br)=NO1)C1CCCN1C(=O)OCc1cnc2ccccc2c1 (centres unmarked) [ERW1041E, 2-[(3-Bromo-4,5-dihydro-isoxazol-5-ylmethyl)-carbamoyl]-pyrrolidine-1—carboxylic acid quinolin-3-ylmethyl ester] | did not interfere | 12 h | no effect |  |
| C=CC(=O)NC1CCN(S(=O)(=O)c2cccc3c(NC(=O)c4ccc(OC)c(OC)c4)cccc23)CC1 [BJJF078, 3,4-Dimethoxy-N-(5-[4-(acryloylamino)piperidine-1-sulfonyl]-naphthalen-1-yl)-benzamide] | did not interfere |  |  | 1800 nM |
